Test results reported in ChEMBL document CHEMBL1201862, “PubChem BioAssay data set” (2004).
Calls of active or inactive are those of the source.

What was measured:
[1] = Potency on glucagon-like peptide 1 release, dose-response in NCI-H716 cell line, half maximal inhibitory concentration (AID 1117344); assay type: functional, cell-based
[2] = glucagon-like peptide-1 release potency in STC-1, concentration-response, half-maximal inhibitory concentration in the STC-1 line (AID 1117345); assay type: functional, cell-based
Transthyretin = Transthyretin (Homo sapiens, UniProt P02766); experiment: Luminescence-based cell-based high throughput dose response assay to identify activators of Transthyretin (TTR) transcription.; assay type: functional
[3] = molecular target: Metabotropic glutamate receptor 7 (Homo sapiens, UniProt Q14831); experiment: potentiation of glutamate EC20 at mGlu7 – cell-based, calcium mobilization, Galpha15, dose response (AID 743384); assay type: functional
[4] = growth inhibition of PfATP4-mutant resistant parasites – NITD609-resistant line, SYBR Green, dry powder, dose response (AID 1159571); assay type: functional, cell-based;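 note: parasites synchronized at ring stage by sorbitol before testing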
[5] = P. falciparum Dd2 growth inhibitors, dose response, SYBR Green, cherry-picked samples (AID 1159567); assay type: functional, cell-based
[6] = growth inhibition of yeast DHODH-expressing 3D7 parasites – SYBR Green, dry powder samples, dose response (AID 1159570); assay type: functional, cell-based;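 note: parasite growth measured after 72 hours of compound exposure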
[7] = Dd2 malaria parasite growth inhibition potency – SYBR Green, dry powder samples, dose response (AID 1159566); assay type: functional, cell-based;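 note: potency for growth inhibition with lower SYBR green DNA signal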
Phospholipase D2 [8] = molecular target: T1, Phospholipase D2 (Homo sapiens, UniProt O14939); experiment: PLD2 Cellular Concentration Response Study.; assay type: functional
Phospholipase D1 = Phospholipase D1 (Homo sapiens, UniProt Q13393); experiment: PLD1 Cellular Concentration Response Study.; assay type: functional
Phospholipase D2 [9] = molecular target: T1, Phospholipase D2; experiment: Discovery of PLD2 inhibitors using the Purified Enzyme Concentration Response Assay.; assay type: functional

T1 sequence (O14939 whole entry): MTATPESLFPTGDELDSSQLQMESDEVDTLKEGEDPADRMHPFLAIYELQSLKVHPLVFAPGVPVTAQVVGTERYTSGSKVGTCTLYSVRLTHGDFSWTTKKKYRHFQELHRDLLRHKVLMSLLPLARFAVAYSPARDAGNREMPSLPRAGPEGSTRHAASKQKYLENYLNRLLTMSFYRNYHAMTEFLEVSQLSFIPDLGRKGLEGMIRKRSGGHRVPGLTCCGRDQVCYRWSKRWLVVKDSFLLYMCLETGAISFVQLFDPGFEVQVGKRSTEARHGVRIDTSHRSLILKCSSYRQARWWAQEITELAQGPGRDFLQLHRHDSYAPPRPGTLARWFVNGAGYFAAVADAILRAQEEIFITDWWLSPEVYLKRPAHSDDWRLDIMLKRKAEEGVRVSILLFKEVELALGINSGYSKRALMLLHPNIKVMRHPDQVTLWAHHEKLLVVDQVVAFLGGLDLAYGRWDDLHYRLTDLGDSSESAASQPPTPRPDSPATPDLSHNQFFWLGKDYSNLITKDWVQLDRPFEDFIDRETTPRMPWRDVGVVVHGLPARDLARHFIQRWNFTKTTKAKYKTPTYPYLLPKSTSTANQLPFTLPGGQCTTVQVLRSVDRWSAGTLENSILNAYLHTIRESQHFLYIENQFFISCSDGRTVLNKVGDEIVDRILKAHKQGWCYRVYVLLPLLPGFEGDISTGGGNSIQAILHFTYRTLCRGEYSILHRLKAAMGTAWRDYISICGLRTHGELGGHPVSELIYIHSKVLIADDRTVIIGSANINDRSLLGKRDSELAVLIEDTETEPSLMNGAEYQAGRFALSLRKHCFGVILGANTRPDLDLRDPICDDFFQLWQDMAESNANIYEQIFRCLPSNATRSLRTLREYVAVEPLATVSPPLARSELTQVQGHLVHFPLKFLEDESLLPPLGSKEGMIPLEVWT
Metabotropic glutamate receptor 7, sequence (Q14831 whole entry): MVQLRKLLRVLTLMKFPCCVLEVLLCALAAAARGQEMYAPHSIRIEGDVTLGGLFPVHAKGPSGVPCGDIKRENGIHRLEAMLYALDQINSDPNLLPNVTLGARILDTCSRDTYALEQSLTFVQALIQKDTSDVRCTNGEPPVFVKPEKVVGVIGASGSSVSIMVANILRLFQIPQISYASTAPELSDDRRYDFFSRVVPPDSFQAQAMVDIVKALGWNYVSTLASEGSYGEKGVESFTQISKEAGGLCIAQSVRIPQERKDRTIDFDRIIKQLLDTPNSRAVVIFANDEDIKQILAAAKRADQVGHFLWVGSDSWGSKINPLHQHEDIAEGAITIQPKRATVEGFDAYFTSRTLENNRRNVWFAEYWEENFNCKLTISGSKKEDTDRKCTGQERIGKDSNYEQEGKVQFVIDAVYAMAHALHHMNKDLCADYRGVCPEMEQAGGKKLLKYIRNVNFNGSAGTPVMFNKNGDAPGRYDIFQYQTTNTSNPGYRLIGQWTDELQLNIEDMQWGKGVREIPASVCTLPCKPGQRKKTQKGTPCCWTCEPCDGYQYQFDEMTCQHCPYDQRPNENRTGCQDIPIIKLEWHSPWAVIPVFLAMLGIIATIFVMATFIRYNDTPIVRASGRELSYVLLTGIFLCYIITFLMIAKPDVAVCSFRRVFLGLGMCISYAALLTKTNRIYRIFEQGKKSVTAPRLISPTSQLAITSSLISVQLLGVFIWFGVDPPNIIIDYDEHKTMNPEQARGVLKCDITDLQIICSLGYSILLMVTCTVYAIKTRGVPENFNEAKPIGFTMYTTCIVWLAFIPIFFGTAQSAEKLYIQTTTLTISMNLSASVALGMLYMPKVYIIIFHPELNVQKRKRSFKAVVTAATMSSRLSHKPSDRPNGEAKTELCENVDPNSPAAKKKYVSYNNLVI
Phospholipase D1, sequence (Q13393 whole entry): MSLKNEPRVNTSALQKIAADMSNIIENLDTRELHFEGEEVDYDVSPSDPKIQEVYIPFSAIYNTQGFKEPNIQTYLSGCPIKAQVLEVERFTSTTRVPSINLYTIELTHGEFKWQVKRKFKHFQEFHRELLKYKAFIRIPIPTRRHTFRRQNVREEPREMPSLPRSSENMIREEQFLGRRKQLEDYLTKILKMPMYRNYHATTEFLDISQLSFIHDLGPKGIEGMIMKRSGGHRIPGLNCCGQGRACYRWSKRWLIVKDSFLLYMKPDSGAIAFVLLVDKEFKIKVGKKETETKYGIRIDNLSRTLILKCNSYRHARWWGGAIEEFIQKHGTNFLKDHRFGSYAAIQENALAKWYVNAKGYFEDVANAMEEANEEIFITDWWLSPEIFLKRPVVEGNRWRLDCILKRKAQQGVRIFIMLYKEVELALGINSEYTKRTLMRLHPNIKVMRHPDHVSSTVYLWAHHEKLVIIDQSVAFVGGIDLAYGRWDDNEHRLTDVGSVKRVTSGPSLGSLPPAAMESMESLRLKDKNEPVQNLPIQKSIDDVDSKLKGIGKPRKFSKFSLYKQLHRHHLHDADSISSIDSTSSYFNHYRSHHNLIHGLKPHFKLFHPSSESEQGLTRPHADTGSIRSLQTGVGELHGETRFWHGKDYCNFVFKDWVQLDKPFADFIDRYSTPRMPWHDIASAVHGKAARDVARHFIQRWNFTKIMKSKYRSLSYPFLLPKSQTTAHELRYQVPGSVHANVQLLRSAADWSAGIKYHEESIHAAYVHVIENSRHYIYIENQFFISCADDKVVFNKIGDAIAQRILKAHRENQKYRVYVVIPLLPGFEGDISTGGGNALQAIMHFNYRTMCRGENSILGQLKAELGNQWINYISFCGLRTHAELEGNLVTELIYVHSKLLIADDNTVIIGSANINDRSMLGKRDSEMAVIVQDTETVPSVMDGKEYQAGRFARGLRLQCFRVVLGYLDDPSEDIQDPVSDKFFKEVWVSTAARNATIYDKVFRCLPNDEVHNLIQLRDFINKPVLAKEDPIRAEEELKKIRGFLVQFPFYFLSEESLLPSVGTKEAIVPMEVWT

With `CC(C)(C)CC(C)(C)c1ccc(O)cc1` as the molecule, how does the IC50 [1] read?
Its IC50 is 25.9 µM (inactive).

And the IC50 [2]?
The IC50 was 8.37 µM (inactive).

For `C/C(=N\Nc1ncc(Br)cn1)c1cccc([N+](=O)[O-])c1`, which EC50 (Transthyretin) is on record?
Its EC50 is > 167 µM (inactive).

Which EC50 [3] does the source give for `COC(=O)c1ccc(-n2c(C)cc(C(=O)COc3ccc(NC(C)=O)cc3)c2C)cc1` here?
Its EC50 is 2.4 µM (active).

What does the source list for `COc1cccc(C#Cc2cnc3c(c2)C(=O)N([C@@H](C)CO)C[C@H](C)[C@@H](CN(C)C(=O)C2CCCCC2)O3)c1`?
AC50 [4]: 0.972 µM (active); AC50 [5]: 0.889 µM (active); AC50 [6]: 0.783 µM (active); AC50 [7]: 0.635 µM (active)

With `O=C(NCCN1CCC2(CC1)C(=O)NCN2Cc1cccnc1)c1cc2ccccc2o1` as the molecule, how does the IC50 (Phospholipase D2 [8]) read?
Its IC50 is 2.5 µM (active).

What about the IC50 (Phospholipase D1) of the same molecule?
Its IC50 is 20 µM (active).

And the IC50 (Phospholipase D2 [9])?
Its IC50 is 12.5 µM (active).
